What is called IC50 is the concentration at which inhibition is half-maximal.

Each structure is given as a SMILES string.

The target of this assay is T1, Myosin-7 (Bos taurus, UniProt Q9BE39).
T1 construct: gene MYH7
T1 sequence (Q9BE39 whole entry, looked up): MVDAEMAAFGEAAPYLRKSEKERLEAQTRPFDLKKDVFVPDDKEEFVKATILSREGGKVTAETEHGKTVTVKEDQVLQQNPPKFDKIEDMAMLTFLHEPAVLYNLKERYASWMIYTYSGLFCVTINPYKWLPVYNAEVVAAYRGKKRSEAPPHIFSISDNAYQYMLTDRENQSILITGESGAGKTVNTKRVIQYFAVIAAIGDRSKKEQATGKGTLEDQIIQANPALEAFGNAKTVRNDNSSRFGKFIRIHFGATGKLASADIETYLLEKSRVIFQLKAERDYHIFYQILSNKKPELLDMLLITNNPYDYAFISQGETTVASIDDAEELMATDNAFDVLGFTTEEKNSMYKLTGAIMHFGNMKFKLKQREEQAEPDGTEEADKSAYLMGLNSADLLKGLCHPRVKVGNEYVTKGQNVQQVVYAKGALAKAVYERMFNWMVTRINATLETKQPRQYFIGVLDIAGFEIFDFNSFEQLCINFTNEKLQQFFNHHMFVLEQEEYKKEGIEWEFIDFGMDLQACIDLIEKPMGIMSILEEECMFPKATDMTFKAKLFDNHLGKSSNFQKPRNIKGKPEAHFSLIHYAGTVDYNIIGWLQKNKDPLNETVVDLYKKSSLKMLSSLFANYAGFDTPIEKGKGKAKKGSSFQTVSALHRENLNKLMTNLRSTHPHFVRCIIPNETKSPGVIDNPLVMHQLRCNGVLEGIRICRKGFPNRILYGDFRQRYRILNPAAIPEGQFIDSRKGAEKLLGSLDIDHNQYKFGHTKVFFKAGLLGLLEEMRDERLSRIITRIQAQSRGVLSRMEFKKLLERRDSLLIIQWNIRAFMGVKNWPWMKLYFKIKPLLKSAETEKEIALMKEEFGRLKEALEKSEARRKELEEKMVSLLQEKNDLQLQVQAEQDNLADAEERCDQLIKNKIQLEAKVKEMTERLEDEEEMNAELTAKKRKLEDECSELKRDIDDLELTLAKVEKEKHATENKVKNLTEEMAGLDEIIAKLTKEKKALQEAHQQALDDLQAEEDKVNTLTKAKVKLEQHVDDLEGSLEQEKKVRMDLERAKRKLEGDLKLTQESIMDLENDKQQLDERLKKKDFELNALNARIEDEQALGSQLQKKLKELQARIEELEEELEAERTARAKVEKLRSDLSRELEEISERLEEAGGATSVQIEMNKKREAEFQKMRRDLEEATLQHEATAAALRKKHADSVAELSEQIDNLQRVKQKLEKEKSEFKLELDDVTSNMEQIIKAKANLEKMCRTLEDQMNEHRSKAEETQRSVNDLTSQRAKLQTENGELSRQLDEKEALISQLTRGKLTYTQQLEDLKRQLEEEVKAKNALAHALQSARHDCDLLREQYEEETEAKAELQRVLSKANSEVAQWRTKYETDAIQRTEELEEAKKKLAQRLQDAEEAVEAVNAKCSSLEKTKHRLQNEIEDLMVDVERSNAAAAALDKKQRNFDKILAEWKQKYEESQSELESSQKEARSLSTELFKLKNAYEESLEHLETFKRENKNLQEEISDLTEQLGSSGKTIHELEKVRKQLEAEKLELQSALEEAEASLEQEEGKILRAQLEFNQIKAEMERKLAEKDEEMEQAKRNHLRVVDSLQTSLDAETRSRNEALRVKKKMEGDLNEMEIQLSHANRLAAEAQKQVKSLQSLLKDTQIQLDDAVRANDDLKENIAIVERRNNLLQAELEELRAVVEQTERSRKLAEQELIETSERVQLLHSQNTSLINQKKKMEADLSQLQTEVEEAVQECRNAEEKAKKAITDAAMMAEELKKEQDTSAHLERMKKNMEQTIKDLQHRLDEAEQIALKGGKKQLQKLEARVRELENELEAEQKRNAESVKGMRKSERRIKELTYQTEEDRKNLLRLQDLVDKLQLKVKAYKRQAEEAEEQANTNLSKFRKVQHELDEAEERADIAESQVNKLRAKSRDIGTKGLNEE
Put plainly: Myofibril Assays. The method, then: To evaluate the effect of compounds on the ATPase activity of full-length cardiac myosin in the context of the native sarcomere, skinned myofibril assays were performed. Bovine cardiac myofibrils were obtained by homogenizing bovine cardiac left ventricular tissue in the presence of a detergent such as triton X-100. Such treatment removes membranes and a majority of the soluble cytoplasmic proteins but leaves intact the cardiac sarcomeric acto-myosin apparatus. Myofibril preparations retain the ability to hydrolyze ATP in an Ca2+ regulated manner. […] Small molecule agents were assessed for their ability to inhibit the steady-state ATPase activity of bovine cardiac myofibrils using pyruvate kinase and lactate dehydrogenase (PK/LDH)-coupled enzyme system. This assay regenerates myosin-produced ADP into ATP by oxidizing NADH, producing an absorbance change at 340 nm.
`Cc1nc(-c2ccc3c(c2)CCC3NC(=O)Nc2cnccn2)no1` (stereo not given) [US12065436, Compound 86] had an IC50 of 14.9 µM.
For the molecule `Cc1cnoc1C(=O)N[C@@H]1CCc2cc(-c3noc(C(F)F)n3)ccc21` [US12065436, Compound 93], the IC50 is 0.9 µM.
The molecule `Cc1cc(C(=O)NC2CCc3cc(-c4noc(C(F)F)n4)ccc32)on1` (stereo not given) [US12065436, Compound 102] had an IC50 of 5.8 µM.
As for `Cc1cnoc1C(=O)NC1CCc2cc(-c3noc(C(F)F)n3)ccc21` (stereo not given) [US12065436, Compound 103], the midpoint of inhibition, the IC50, lay at 2.2 µM.
As to `O=C(N[C@@H]1CCc2cc(-c3noc(C4CC4)n3)ccc21)C1CC1` [US12065436, Compound 318], the half-inhibitory concentration (IC50) was 9.3 µM.
In the case of `CCc1cc(-c2ccc3c(c2)CC[C@H]3NC(=O)OC)no1` [US12065436, Compound 345], the midpoint of inhibition, the IC50, lay at 0.8 µM.
In turn, `Cn1cc(C(=O)N[C@@H]2CCc3cc(-c4noc(C5CCC5)n4)ccc32)cn1` [US12065436, Compound 411] registered a 50% inhibitory concentration (IC50) of 3.2 µM.
The molecule `CCc1nc(-c2ccc3c(c2)CC[C@H]3NC(=O)c2cnn(C3CN(C(=O)OC(C)(C)C)C3)c2)no1` [US12065436, Compound 471] returned a concentration for half-maximal inhibition (IC50) of 7.1 µM.
`CCc1nc(-c2ccc3c(c2)CC[C@H]3NC(=O)c2cnn(C3CN(C(=O)OC)C3)c2)no1` [US12065436, Compound 480] came in with an IC50 of 39.2 µM.
Next, `COCc1nc(-c2ccc3c(c2)CC[C@H]3NC(=O)c2cnc(C)n2C)no1` [US12065436, Compound 691]: 5.8 µM.

These data come from BindingDB's records for patent US12065436 (Cytokinetics, 2024).
